In publication PMC8707461, “In Vitro and In Vivo Inhibition of MATE1 by Tyrosine Kinase Inhibitors” (Pharmaceutics, 2021) one finds inhibition data, which are given here for 26 compounds.

This data set addresses T1, MATE1 (Homo sapiens, UniProt Q96FL8).
T1 sequence (Q96FL8 1-570): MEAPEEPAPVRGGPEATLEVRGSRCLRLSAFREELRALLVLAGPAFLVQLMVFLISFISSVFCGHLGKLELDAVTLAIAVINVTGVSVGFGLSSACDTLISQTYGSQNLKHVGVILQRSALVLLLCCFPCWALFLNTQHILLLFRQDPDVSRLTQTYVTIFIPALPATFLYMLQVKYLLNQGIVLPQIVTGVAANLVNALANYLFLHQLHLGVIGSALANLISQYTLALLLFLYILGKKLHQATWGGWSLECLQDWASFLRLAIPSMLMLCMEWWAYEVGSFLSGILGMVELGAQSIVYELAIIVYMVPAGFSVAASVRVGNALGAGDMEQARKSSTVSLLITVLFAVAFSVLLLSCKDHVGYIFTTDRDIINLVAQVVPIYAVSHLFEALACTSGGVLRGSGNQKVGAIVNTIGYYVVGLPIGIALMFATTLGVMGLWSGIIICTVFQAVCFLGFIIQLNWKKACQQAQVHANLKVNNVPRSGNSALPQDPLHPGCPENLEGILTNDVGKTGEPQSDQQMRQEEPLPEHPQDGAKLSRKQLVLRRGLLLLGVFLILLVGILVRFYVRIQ
As to the kind of experiment: [14C]TEA uptake in HEK293 cells overexpressing human MATE1. The conditions noted are these: human. The method, then:
Uptake experiments in HEK293 cells overexpressing mouse (m) and human (h) OCT2 or MATE1 were performed with radiolabeled tetraethylammonium (TEA) as the model substrate, using standard methods in the presence or absence of TKIs. The cell culture and uptake conditions for cells expressing mMATE1 or hMATE1 were described previously. […] Since the inhibitory potential of various xenobiotics against OCT2 and MATE1 is dependent on preincubation with perpetrator drugs, a 15-min preincubation period with the TKIs was employed unless stated otherwise. All results were normalized to uptake values in cells transfected with an empty vector or DMSO-treated groups.
MATE1-overexpressed cells were pre-incubated with transport media containing 30 mM ammonium chloride for 20 min at 37 °C following previously published protocol (pH 7.4 for hMATE1 [17, 18, 19] and pH 8.4 for mMATE1 [20, 21]) to ensure interactions can be evaluated between outward-facing MATE1 and substrate uptake before adding inhibitors. Then, preincubation media was removed and cells were incubated with transport media (NH4Cl free) containing radiolabeled compounds. […] The uptake of TEA and metformin was measured by liquid scintillation counting, as described previously. For uptake studies involving platinum drugs, cells were collected with TrypLE, and the pellets were lysed overnight in 0.2% nitric acid. After sonication, total platinum levels were determined by flameless atomic absorption spectrometry.

[1] abbreviates: HEK293 cells overexpressing human MATE1, pH 7.4, probe [14C]TEA (tetraethylammonium), 2 µM.

Usually inhibition stands for how much of the control response was suppressed. Under setting [1], `CC#CC(=O)N1CCC[C@H]1c1nc(-c2ccc(C(=O)Nc3ccccn3)cc2)c2c(N)nccn12` [Acalabrutinib] had an inhibition at 10 µM of 43.3%. Same read-out and setting: as for `CCc1cc2c(cc1N1CCC(N3CCOCC3)CC1)C(C)(C)c1[nH]c3cc(C#N)ccc3c1C2=O` [Alectinib], the figure is 0%; as for `Cn1cc(-c2cc3c(N4CCN(c5ncc([C@@](C)(N)c6ccc(F)cc6)cn5)CC4)ncnn3c2)cn1` [Avapritinib], 78.6%. The same measure, in the same setting: as for `CNC(=O)c1ccccc1Sc1ccc2c(/C=C/c3ccccn3)n[nH]c2c1` [Axitinib], the figure is 60.8%. `CCS(=O)(=O)N1CC(CC#N)(n2cc(-c3ncnc4[nH]ccc34)cn2)C1` [Baricitinib] came in with an inhibition at 10 µM under setting [1] of 55.5%. `COc1cc(N2CCC(N3CCN(C)CC3)CC2)ccc1Nc1ncc(Cl)c(Nc2ccccc2P(C)(C)=O)n1` [Brigatinib] returned an inhibition at 10 µM (pH 7.4) of 95.9%. With `CNC(=O)c1ccc(-c2cnc3ncc(Cc4ccc5ncccc5c4)n3n2)cc1F` [Capmatinib], at 10 µM the inhibition under setting [1] was 99.7%.

`Cc1cc(Nc2ncc(Cl)c(Nc3ccccc3S(=O)(=O)C(C)C)n2)c(OC(C)C)cc1C1CCNCC1` [Ceritinib] showed an inhibition at 10 µM under setting [1] of 96.1%. With `O=C(c1ccc(F)c(F)c1Nc1ccc(I)cc1F)N1CC(O)([C@@H]2CCCCN2)C1` [Cobimetinib], under setting [1], the inhibition at 10 µM was found to be 83.3%. Consider `CC(C)(C)c1nc(-c2cccc(NS(=O)(=O)c3c(F)cccc3F)c2F)c(-c2ccnc(N)n2)s1` [Dabrafenib], for which at 10 µM the inhibition under setting [1] was 72.1%. In the case of `COc1cc2ncnc(Nc3ccc(F)c(Cl)c3)c2cc1NC(=O)/C=C/CN1CCCCC1` [Dacomitinib], testing at 10 µM under setting [1] gave an inhibition of 91.6%. On the same count and under the same terms, as for `COC(=O)N[C@@H](C)CNc1nccc(-c2cn(C(C)C)nc2-c2cc(Cl)cc(NS(C)(=O)=O)c2F)n1` [Encorafenib], the figure is 66.1%; as for `CN1CCN(c2ccc(C(=O)Nc3n[nH]c4ccc(Cc5cc(F)cc(F)c5)cc34)c(NC3CCOCC3)c2)CC1` [Entrectinib], 99.6%; as for `Cc1cnc(Nc2ccc(OCCN3CCCC3)cc2)nc1Nc1cccc(S(=O)(=O)NC(C)(C)C)c1` [Fedratinib], 98.6%.

Compound `COc1cc(Nc2ncc(F)c(Nc3ccc4c(n3)N(COP(=O)(O)O)C(=O)C(C)(C)O4)n2)cc(OC)c1OC` [Fostamatinib] gave an inhibition at 10 µM under setting [1] of 40.2%. The same measure, in the same setting: in the case of `COc1cc2ncnc(Nc3ccc(F)c(Cl)c3)c2cc1OCCCN1CCOCC1` [Gefitinib] it was 91.8%; in that of `CCc1nc(C(N)=O)c(Nc2ccc(N3CCC(N4CCN(C)CC4)CC3)c(OC)c2)nc1NC1CCOCC1` [Gilteritinib], 96.7%. `O=C(Nc1cnn2ccc(N3CCC[C@@H]3c3cc(F)ccc3F)nc12)N1CC[C@H](O)C1` [Larotrectinib] displayed an inhibition at 10 µM under setting [1] of 21.1%.

`COc1cc2nccc(Oc3ccc(NC(=O)NC4CC4)c(Cl)c3)c2cc1C(N)=O` [Lenvatinib]: under setting [1], 10 µM produced 87.7% inhibition. On the same count and under the same terms, as for `C[C@H]1Oc2cc(cnc2N)-c2c(nn(C)c2C#N)CN(C)C(=O)c2ccc(F)cc21` [Lorlatinib], the figure is 61.8%; as for `CO[C@@H]1[C@H](N(C)C(=O)c2ccccc2)C[C@H]2O[C@]1(C)n1c3ccccc3c3c4c(c5c6ccccc6n2c5c31)C(=O)NC4` [Midostaurin], 50%. Still for that read-out and setting: in the case of `CCOc1cc2ncc(C#N)c(Nc3ccc(OCc4ccccn4)c(Cl)c3)c2cc1NC(=O)/C=C/CN(C)C` [Neratinib] it was 90.9%; in that of `COC(=O)c1ccc2c(c1)NC(=O)/C2=C(\Nc1ccc(N(C)C(=O)CN2CCN(C)CC2)cc1)c1ccccc1` [Nintedanib], 95.3%; in that of `C=CC(=O)Nc1cccc(Oc2nc(Nc3ccc(N4CCN(C)CC4)cc3)nc3ccsc23)c1` [Olmutinib], 97.7%.

As for `C=CC(=O)Nc1cc(Nc2nccc(-c3cn(C)c4ccccc34)n2)c(OC)cc1N(C)CCN(C)C` [Osimertinib], testing at 10 µM under setting [1] gave an inhibition of 94.1%. Still for that read-out and setting: as for `CCN1C(=O)N(c2c(F)c(OC)cc(OC)c2F)Cc2cnc3[nH]c(CN4CCOCC4)cc3c21` [Pemigatinib], the figure is 80.1%.
